In PMC9199891 (Clinical and Translational Science, 2022):

Assay: Single-dose pharmacokinetics of omeprazole
Format: in vivo, healthy Chinese volunteers
Conditions: for AUC0-t / AUC0-∞ / Cmax: 20 mg single oral dose, mean ± SD; for Tmax: human, plasma, oral, 20 mg

AUC0-t (CYP2C19 *1/*1 (n = 263)): 466.2 ± 493.2 ng·h/mL
AUC0-∞ (CYP2C19 *1/*1 (n = 263)): 499.3 ± 498.4 ng·h/mL
Cmax (CYP2C19 *1/*1 (n = 263)): 309 ± 227 ng/mL
AUC0-t (CYP2C19 *1/*2 (n = 241)): 766.4 ± 529.4 ng·h/mL
AUC0-∞ (CYP2C19 *1/*2 (n = 241)): 817.8 ± 524.4 ng·h/mL
Cmax (CYP2C19 *1/*2 (n = 241)): 449 ± 309 ng/mL
AUC0-t (CYP2C19 *1/*3 (n = 48)): 707.8 ± 490.3 ng·h/mL
AUC0-∞ (CYP2C19 *1/*3 (n = 48)): 808.0 ± 545.9 ng·h/mL
Cmax (CYP2C19 *1/*3 (n = 48)): 440 ± 390 ng/mL
AUC0-t (CYP2C19 *1/*17 (n = 6)): 363.8 ± 232.6 ng·h/mL
AUC0-∞ (CYP2C19 *1/*17 (n = 6)): 366.5 ± 233.4 ng·h/mL
AUC0-t (CYP2C19 *2/*2 (n = 74)): 3379 ± 1421 ng·h/mL
AUC0-∞ (CYP2C19 *2/*2 (n = 74)): 3790 ± 1311 ng·h/mL
Cmax (CYP2C19 *2/*2 (n = 74)): 1130 ± 992 ng/mL
AUC0-t (CYP2C19 *2/*3 (n = 17)): 3908 ± 1560 ng·h/mL
AUC0-∞ (CYP2C19 *2/*3 (n = 17)): 4221 ± 1453 ng·h/mL
Cmax (CYP2C19 *2/*3 (n = 17)): 1040 ± 550 ng/mL
AUC0-t (CYP2C19 *2/*17 (n = 2)): 507.3 ± 150.3 ng·h/mL
AUC0-∞ (CYP2C19 *2/*17 (n = 2)): 693.0 ± 109.6 ng·h/mL
Cmax (CYP2C19 *2/*17 (n = 2)): 530 ± 344 ng/mL
AUC0-t (CYP2C19 *3/*3 (n = 2)): 3913 ± 493.0 ng·h/mL
AUC0-∞ (CYP2C19 *3/*3 (n = 2)): 4444 ± 793.4 ng·h/mL
Cmax (CYP2C19 *3/*3 (n = 2)): 884 ± 575 ng/mL
AUC0-t (CYP2C19 *3/*17 (n = 3)): 544.8 ± 14.52 ng·h/mL
AUC0-∞ (CYP2C19 *3/*17 (n = 3)): 547.0 ± 14.47 ng·h/mL
Cmax (CYP2C19 phenotype IM (n = 294)): 447 ± 322 ng/mL
AUC0-t (CYP2C19 phenotype NM (n = 263)): 466.16 ± 493.21 ng·h/mL
Cmax (CYP2C19 phenotype NM (n = 263)): 308 ± 227 ng/mL
AUC0-t (CYP2C19 phenotype PM (n = 93)): 3487.32 ± 1440.13 ng·h/mL
AUC0-∞ (CYP2C19 phenotype PM (n = 93)): 3883.09 ± 1331.02 ng·h/mL
Cmax (CYP2C19 phenotype PM (n = 93)): 1110 ± 916 ng/mL
AUC0-t (CYP2C19 phenotype RM (n = 6)): 363.77 ± 232.56 ng·h/mL
Cmax increase in PM (PM versus IM): 2.5 fold
Tmax (after administration in all groups (four phenotype groups)): 3.89 to 4.45 h
Tmax (after administration in all subjects (nine diplotype groups)): 1.33 to 4.6 h
SMILES: COc1ccc2[nH]c([S+]([O-])Cc3ncc(C)c(OC)c3C)nc2c1 (centres unmarked) [omeprazole]
